Source: article PMC3931744, “Discovery of Selective Inhibitors of the Clostridium difficile Dehydroquinate Dehydratase” (PLoS ONE, 2014)
Values joined by “and” are separate entries in the source; they are usually repeats but may differ in a detail not shown here. Equal entries are not always repeated. Where two headings read alike, the source gives them in different places.

Tests used:
[1] = target: ypDHQD (type II DHQD) (Yersinia pestis, UniProt Q8ZAX1); assay: biochemical
[2] = target: T1, cdDHQD (Clostridioides difficile, UniProt Q186A6); assay: biochemical; details: Kd for binding to cdDHQD (WaterLOGSY), NMR titration; PBS pH 7.2, 25°C
T1 sequence (Q186A6 whole entry): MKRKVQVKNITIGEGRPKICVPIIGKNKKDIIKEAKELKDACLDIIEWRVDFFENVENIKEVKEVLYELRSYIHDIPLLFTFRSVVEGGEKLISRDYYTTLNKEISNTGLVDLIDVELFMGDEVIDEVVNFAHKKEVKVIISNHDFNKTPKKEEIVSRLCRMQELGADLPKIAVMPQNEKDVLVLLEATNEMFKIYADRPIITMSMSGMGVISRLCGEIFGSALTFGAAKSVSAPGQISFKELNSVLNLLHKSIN

[3] = target: T1, cdDHQD; assay: biochemical; parameters: species or system Clostridium difficile
[4] = target: T2, btDHQD (type II DHQD) (Bacteroides thetaiotaomicron, UniProt Q8A3W2); assay: btDHQD inhibition, primary screen DHQD assay
T2 sequence (Q8A3W2 1-140): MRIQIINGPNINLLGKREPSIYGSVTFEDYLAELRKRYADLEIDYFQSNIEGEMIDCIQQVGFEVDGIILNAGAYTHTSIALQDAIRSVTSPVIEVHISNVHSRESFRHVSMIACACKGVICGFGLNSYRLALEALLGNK

[5] = target: T3, vcDHQD (type II DHQD) (Vibrio cholerae, UniProt Q9KV60); assay: vcDHQD inhibition, DHQD panel; assay type: biochemical
T3 sequence (Q9KV60 1-150): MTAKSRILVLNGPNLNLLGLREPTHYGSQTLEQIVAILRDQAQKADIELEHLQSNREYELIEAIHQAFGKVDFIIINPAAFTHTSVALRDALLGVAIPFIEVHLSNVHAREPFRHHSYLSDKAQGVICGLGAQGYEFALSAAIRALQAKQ

[6] = target: T4, seDHQD (Salmonella typhimurium, UniProt P58687); assay: WaterLOGSY NMR titration with seDHQD; details: Kd for binding to seDHQD (WaterLOGSY), PBS pH 7.2, 25°C
T4 sequence (P58687 whole entry): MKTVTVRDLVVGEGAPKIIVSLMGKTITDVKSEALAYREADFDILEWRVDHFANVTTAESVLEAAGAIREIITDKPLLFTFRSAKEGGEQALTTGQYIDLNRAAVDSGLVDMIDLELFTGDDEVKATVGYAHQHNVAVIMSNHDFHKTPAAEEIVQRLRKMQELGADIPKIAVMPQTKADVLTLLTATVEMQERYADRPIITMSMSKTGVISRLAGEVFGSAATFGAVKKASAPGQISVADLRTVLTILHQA

[7] = target: T1, cdDHQD; assay: biochemical
[8] = target: T4, seDHQD; assay: NMR line broadening with seDHQD; assay type: binding, Salmonella enterica; details: similar compound concentrations; 10 µM DHQD, 100 µM compound
Source text: Supplementary Figure S2. NMR data for binding of compounds 1 and 2 to cdDHQD. (A) Line broadening observed for compound 1 upon addition of cdDHQD or seDHQD. (B) Line broadening observed for compound 2 upon addition of cdDHQD or seDHQD. […] Line widths were estimated using NMRDraw (Delaglio et al., 1995).

[9] = target: T1, cdDHQD; details: 10 µM DHQD, 100 µM compound
[10] = 200 µM compound, substrate up to 5 mM
[11] = type II DHQD, read-out: IC50 vcDHQD
[12] = Kd for binding to cdDHQD (line broadening, double reciprocal plot), NMR, PBS pH 7.2, 25°C
[13] = Kd for binding to cdDHQD, fit of single resonances, NMR titration, two different resonances per compound (Figure 3A, 3B)

ypDHQD (type II DHQD), sequence (Q8ZAX1 whole entry, looked up): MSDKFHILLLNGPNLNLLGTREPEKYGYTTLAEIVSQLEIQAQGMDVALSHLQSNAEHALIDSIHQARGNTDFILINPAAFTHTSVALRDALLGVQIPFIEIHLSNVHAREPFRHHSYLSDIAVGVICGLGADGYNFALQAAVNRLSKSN

| Compound | IC50 [1] [µM] | Kd [2] | Ki [3] [µM] | Vmax in presence of inhibitor [3, 10] | increase of apparent Km [3, 10] [fold] | mechanism of inhibition ([3]; from Km/Vmax at high substrate) | IC50 [4] [µM] | IC50 [5, 11] [µM] | Kd [6] | Kd [7, 12] | Kd [7, 13] | line broadening of compound resonances with seDHQD [8] [Hz] | IC50 [5] [µM] | line broadening of compound resonances with cdDHQD [9] [Hz] |
| --- | --- | --- | --- | --- | --- | --- | --- | --- | --- | --- | --- | --- | --- | --- |
| O=C(O)c1ccccc1NC(=O)c1csc2c1CCCC2 [Compound 3] | > 200 | ~65 µM and 67 µM | 19 to 22 | unchanged | 10 | competitive | > 200 | > 200 | ~400 µM and ~390 µM | – | – | – | – | – |
| COc1ccc2nc(NS(=O)(=O)c3cc(Cl)ccc3Cl)sc2c1 [Compound 2] | > 200 | – | – | – | – | – | > 200 | – | – | ~25 µM | 15 µM and 34 µM | < 1 | > 200 | > 6 |
| O=S(=O)(Nc1nc(-c2ccccc2)cs1)c1cc(Cl)ccc1Cl [Compound 1] | > 200 | – | 11 to 15 | – | – | – | > 200 | > 200 | – | ~27 µM and ~25 µM | 35 µM and 18 µM | < 1 | – | > 6 |
